Measured values published in ChEMBL document CHEMBL1201862, “PubChem BioAssay data set” (2004).
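Each compound was tested at five concentrations against cells in 96-well plates for 48 hours. GI50 is the concentration that inhibits growth by half.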 Active and inactive are the calls of the source. Rule as the data show it: active = GI50 up to about 1.1 µM and inactive = higher.

What was measured:
Assay in all cases: inhibition of tumour cell growth, NCI panel, 48 h
[1] = system: HCT-116
[2] = system: SNB-19
[3] = system: BT-549
[4] = system: RXF 393
[5] = system: SF-539
[6] = system: IGROV-1
[7] = system: SW-620
[8] = system: TK-10
[9] = system: RPMI-8226
[10] = system: OVCAR-8
[11] = system: NCI-H522
[12] = system: NCI-H460
[13] = system: COLO 205
[14] = system: CAKI-1
[15] = system: DU-145
[16] = system: PC-3
[17] = system: SK-MEL-2
[18] = system: M14
[19] = system: T47D
[20] = system: NCI/ADR-RES

In the case of `N=C(N)SCCCN`, the GI50 [1] is reported as 3.86 µM (inactive), the GI50 [2] is reported as 20.7 µM (inactive) and the GI50 [3] is reported as 4.06 µM (inactive). For the same compound, the GI50 [4] was 4.29 µM (inactive), the GI50 [5] was 5.81 µM (inactive) and the GI50 [6] was 3.83 µM (inactive). The GI50 [7] was 26.4 µM (inactive), the GI50 [8] was 3.65 µM (inactive) and the GI50 [9] was 18.5 µM (inactive). The GI50 [10] was 3.87 µM (inactive), the GI50 [11] was 5.41 µM (inactive) and the GI50 [12] was 4.13 µM (inactive). The GI50 [13] was 13.7 µM (inactive), the GI50 [14] was 4.32 µM (inactive) and the GI50 [15] was 20.4 µM (inactive). For the same compound, the GI50 [16] was 15.6 µM (inactive), the GI50 [17] was 13.2 µM (inactive) and the GI50 [18] was 3.52 µM (inactive). For the same compound, the GI50 [19] was 32.2 µM (inactive) and the GI50 [20] was 5.02 µM (inactive).

`CCc1nc(N)nc(N)c1-c1ccc(N2CCOCC2)c(N=[N+]=[N-])c1` was tested, and the GI50 [1] was 18.4 µM (inactive), the GI50 [2] was 38.3 µM (inactive) and the GI50 [3] was > 78.2 µM (inactive). For the same compound, the GI50 [4] was > 83.2 µM (inactive), the GI50 [5] was 75.5 µM (inactive) and the GI50 [6] was 28.2 µM (inactive). For the same compound, the GI50 [7] was 41.9 µM (inactive), the GI50 [8] was > 100 µM (inactive) and the GI50 [9] was > 89.5 µM (inactive). The GI50 [10] was 61.7 µM (inactive), the GI50 [11] was 20.9 µM (inactive) and the GI50 [12] was 8.85 µM (inactive). The GI50 [13] was 79.6 µM (inactive), the GI50 [14] was 62.2 µM (inactive) and the GI50 [15] was > 82.8 µM (inactive). The GI50 [16] was 42.6 µM (inactive), the GI50 [17] was > 100 µM (inactive) and the GI50 [18] was 54.3 µM (inactive). For the same compound, the GI50 [19] was > 92.7 µM (inactive) and the GI50 [20] was > 100 µM (inactive).

In the case of `O=C1/C(=C\c2ccccc2)C(NC2CCCCC2)c2ccccc21` (stereo not given), the GI50 [1] is reported as 0.959 µM (active), the GI50 [2] is reported as 10.5 µM (inactive) and the GI50 [3] is reported as 2.36 µM (inactive). For the same compound, the GI50 [4] was 1.56 µM (inactive), the GI50 [5] was 1 µM (active) and the GI50 [6] was 2.99 µM (inactive). The GI50 [7] was 0.444 µM (active), the GI50 [8] was 1.29 µM (inactive) and the GI50 [9] was 0.387 µM (active). The GI50 [10] was 2.12 µM (inactive), the GI50 [11] was 0.578 µM (active) and the GI50 [12] was 2.71 µM (inactive). For the same compound, the GI50 [13] was 1.55 µM (inactive), the GI50 [14] was 1.48 µM (inactive) and the GI50 [15] was 1.53 µM (inactive). For the same compound, the GI50 [16] was 1.78 µM (inactive), the GI50 [17] was 2.24 µM (inactive) and the GI50 [18] was 1.54 µM (inactive). For the same compound, the GI50 [19] was 1.73 µM (inactive) and the GI50 [20] was 3.65 µM (inactive).

With `O=C1O/C(=C(\Br)c2ccc([N+](=O)[O-])cc2)c2ccccc21` the GI50 [1] was 97.9 µM (inactive), the GI50 [2] was > 100 µM (inactive) and the GI50 [3] was > 79.8 µM (inactive). For the same compound, the GI50 [4] was > 100 µM (inactive), the GI50 [5] was > 100 µM (inactive) and the GI50 [6] was > 100 µM (inactive). For the same compound, the GI50 [7] was > 64.3 µM (inactive), the GI50 [8] was > 100 µM (inactive) and the GI50 [9] was 38.7 µM (inactive). The GI50 [10] was > 76.6 µM (inactive), the GI50 [11] was 38.5 µM (inactive) and the GI50 [12] was > 100 µM (inactive). The GI50 [13] was > 100 µM (inactive), the GI50 [14] was > 100 µM (inactive) and the GI50 [15] was > 100 µM (inactive). The GI50 [16] was > 100 µM (inactive), the GI50 [17] was 46.2 µM (inactive) and the GI50 [18] was > 100 µM (inactive). For the same compound, the GI50 [19] was 86.5 µM (inactive) and the GI50 [20] was > 100 µM (inactive).

For `CCCC(=O)OC(OC(=O)CCC)c1ccc([N+](=O)[O-])o1`, the GI50 [1] was 16.9 µM (inactive), the GI50 [2] was > 100 µM (inactive) and the GI50 [3] was 47.2 µM (inactive). The GI50 [4] was 17.2 µM (inactive), the GI50 [5] was 35.7 µM (inactive) and the GI50 [6] was 14.8 µM (inactive). The GI50 [7] was 20 µM (inactive), the GI50 [8] was 19.4 µM (inactive) and the GI50 [9] was 22.6 µM (inactive). The GI50 [10] was 32.2 µM (inactive), the GI50 [11] was 13.4 µM (inactive) and the GI50 [12] was > 100 µM (inactive). The GI50 [13] was 23.3 µM (inactive), the GI50 [14] was 17.7 µM (inactive) and the GI50 [15] was 36.7 µM (inactive). The GI50 [16] was 61.7 µM (inactive), the GI50 [17] was 22.8 µM (inactive) and the GI50 [18] was 19.8 µM (inactive). For the same compound, the GI50 [19] was 21.4 µM (inactive) and the GI50 [20] was 39.2 µM (inactive).

In the case of `O=c1oc2ccc([N+](=O)[O-])cc2c(Nc2ccc3c(c2)Sc2ccccc2O3)c1[N+](=O)[O-]`, the GI50 [1] is reported as 15.8 µM (inactive), the GI50 [2] is reported as 17.9 µM (inactive) and the GI50 [3] is reported as 24 µM (inactive). For the same compound, the GI50 [4] was 22.4 µM (inactive), the GI50 [5] was 19.8 µM (inactive) and the GI50 [6] was 21.6 µM (inactive). For the same compound, the GI50 [7] was 30.3 µM (inactive), the GI50 [8] was 27.4 µM (inactive) and the GI50 [9] was 9.2 µM (inactive). The GI50 [10] was 25.3 µM (inactive), the GI50 [11] was 17.6 µM (inactive) and the GI50 [12] was 20.2 µM (inactive). The GI50 [13] was 19.3 µM (inactive), the GI50 [14] was 22.3 µM (inactive) and the GI50 [15] was 36.7 µM (inactive). For the same compound, the GI50 [16] was 19.5 µM (inactive), the GI50 [17] was 20.4 µM (inactive) and the GI50 [18] was 19.4 µM (inactive). The GI50 [19] was 40.7 µM (inactive) and the GI50 [20] was 29.5 µM (inactive).

For `CCN(CC)CCNc1ccc2nc(C)n3c4ccc(OC)cc4c(=O)c1c23`, the GI50 [1] was 0.282 µM (active), the GI50 [2] was 1.03 µM (active) and the GI50 [3] was 5.31 µM (inactive). For the same compound, the GI50 [4] was 4.07 µM (inactive), the GI50 [5] was 1.91 µM (inactive) and the GI50 [6] was 0.494 µM (active). The GI50 [7] was 0.711 µM (active), the GI50 [8] was 0.873 µM (active) and the GI50 [9] was 1.36 µM (inactive). The GI50 [10] was 0.575 µM (active), the GI50 [11] was 0.272 µM (active) and the GI50 [12] was 0.538 µM (active). The GI50 [13] was 0.693 µM (active), the GI50 [14] was 1.86 µM (inactive) and the GI50 [15] was 1.29 µM (inactive). For the same compound, the GI50 [16] was 0.955 µM (active), the GI50 [17] was 12.4 µM (inactive) and the GI50 [18] was 10.5 µM (inactive). The GI50 [19] was 17.8 µM (inactive) and the GI50 [20] was 0.675 µM (active).

For `O=[N+]([O-])C(/C=C(\Cl)[N+](=O)[O-])=C(Nc1ccccc1)Nc1ccccc1`, the GI50 [1] was 1.98 µM (inactive), the GI50 [2] was 17.5 µM (inactive) and the GI50 [3] was 7.24 µM (inactive). The GI50 [4] was 4.65 µM (inactive), the GI50 [5] was 11.2 µM (inactive) and the GI50 [6] was 17.2 µM (inactive). For the same compound, the GI50 [7] was 2.79 µM (inactive), the GI50 [8] was 12.8 µM (inactive) and the GI50 [9] was 2.28 µM (inactive). The GI50 [10] was 8.41 µM (inactive), the GI50 [11] was 2.21 µM (inactive) and the GI50 [12] was 16.4 µM (inactive). For the same compound, the GI50 [13] was 8.53 µM (inactive), the GI50 [14] was 13.7 µM (inactive) and the GI50 [15] was 17.1 µM (inactive). For the same compound, the GI50 [16] was 14.6 µM (inactive), the GI50 [17] was 16.4 µM (inactive) and the GI50 [18] was 9.84 µM (inactive). For the same compound, the GI50 [19] was 7.43 µM (inactive) and the GI50 [20] was 7.93 µM (inactive).

In the case of `CC1=C(C(=O)OCCc2ccc([N+](=O)[O-])cc2)C(c2ccccc2[N+](=O)[O-])C(C(=O)OC(C)C)=C(C)N1` (stereo not given), the GI50 [1] is reported as 2.75 µM (inactive), the GI50 [2] is reported as 5.61 µM (inactive) and the GI50 [3] is reported as 2.4 µM (inactive). For the same compound, the GI50 [4] was 3.22 µM (inactive), the GI50 [5] was 4.15 µM (inactive) and the GI50 [6] was 7.05 µM (inactive). For the same compound, the GI50 [7] was 6.89 µM (inactive), the GI50 [8] was 5.87 µM (inactive) and the GI50 [9] was 2.93 µM (inactive). For the same compound, the GI50 [10] was 3.66 µM (inactive), the GI50 [11] was 2.18 µM (inactive) and the GI50 [12] was 2.6 µM (inactive). For the same compound, the GI50 [13] was 6.01 µM (inactive), the GI50 [14] was 3.4 µM (inactive) and the GI50 [15] was 9.04 µM (inactive). For the same compound, the GI50 [16] was 1.49 µM (inactive), the GI50 [17] was 3.86 µM (inactive) and the GI50 [18] was 4.05 µM (inactive). For the same compound, the GI50 [19] was 3.9 µM (inactive) and the GI50 [20] was 3.19 µM (inactive).

In the case of `O=C(NC(Nc1ccc(F)c(Cl)c1)(C(F)(F)F)C(F)(F)F)OCc1ccccc1`, the GI50 [1] is reported as 47.5 µM (inactive), the GI50 [2] is reported as 20.9 µM (inactive) and the GI50 [3] is reported as 14.7 µM (inactive). The GI50 [4] was 43.3 µM (inactive), the GI50 [5] was 17.6 µM (inactive) and the GI50 [6] was 39 µM (inactive). The GI50 [7] was 61.7 µM (inactive), the GI50 [8] was 63.1 µM (inactive) and the GI50 [9] was 20.4 µM (inactive). For the same compound, the GI50 [10] was 35 µM (inactive), the GI50 [11] was 22.7 µM (inactive) and the GI50 [12] was 85.1 µM (inactive). For the same compound, the GI50 [13] was 17.8 µM (inactive), the GI50 [14] was 34.6 µM (inactive) and the GI50 [15] was 24.4 µM (inactive). For the same compound, the GI50 [16] was 17.4 µM (inactive), the GI50 [17] was 69.3 µM (inactive) and the GI50 [18] was 37 µM (inactive). For the same compound, the GI50 [19] was 28.1 µM (inactive) and the GI50 [20] was 27.7 µM (inactive).
